The record followed here is PubChem BioAssay (NCI).

Where “and” joins values, the source holds several entries; their conditions need not be identical. Equal values may be shown once.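 Assay format: 96-well plates, 48-hour exposure. At the GI50, growth is halved. TGI is the concentration that stops growth completely.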 Where only a bound is given, the exact number is not on record here.

Some test systems named below: NCI-H23 lung; HCC-2998 colon; HT29 colon; NCI-H522 lung; A498 renal; SF-539 CNS; UO-31 renal; SW-620 colon; PC-3 prostate; OVCAR-8 ovarian.
Experiment in all cases: NCI tumour cell line growth inhibition, 48 h

For the compound `O=C(O)c1ccc2cccnc2c1O`, the GI50 is 1.05 µM with NCI-H23 lung; 2.32 µM in the assay with HCC-2998 colon; 2.43 µM in the assay with HT29 colon; 0.948 µM in the assay with NCI-H522 lung; 1.19 µM in the assay on SF-539 CNS; 1.14 µM with UO-31 renal. The GI50 was 2 µM in the assay with SW-620 colon and 1.27 µM with OVCAR-8 ovarian. The TGI is 29.1 µM with NCI-H23 lung; 37.5 µM in the assay on HCC-2998 colon; greater than 79 µM with HT29 colon; 13.3 µM in the assay with NCI-H522 lung; greater than 92.4 µM in the assay on A498 renal; 12.8 µM in the assay with SF-539 CNS. For the same compound, the TGI with UO-31 renal was 8.65 µM; with SW-620 colon, greater than 100 µM; with PC-3 prostate, greater than 100 µM; in the assay with OVCAR-8 ovarian, greater than 59.1 µM.

For `O=c1[nH]cnc2nc(-c3ccc(N(CCCl)CCCl)cc3)[nH]c12`, the GI50 is 31.7 µM in the assay on NCI-H23 lung; 4.76 µM with HCC-2998 colon; greater than 100 µM with HT29 colon; greater than 100 µM with NCI-H522 lung; 22.2 µM in the assay on A498 renal; 15.1 µM in the assay with SF-539 CNS. The GI50 in the assay with UO-31 renal was 10.4 µM; in the assay on SW-620 colon it was 6.46 µM; with PC-3 prostate it was greater than 100 µM; with OVCAR-8 ovarian, 8.89 µM. Also, the TGI in the assay with NCI-H23 lung is greater than 100 µM; in the assay with HCC-2998 colon, greater than 100 µM; in the assay on HT29 colon, greater than 100 µM; with NCI-H522 lung, greater than 100 µM; with A498 renal, 70.3 µM; in the assay with SF-539 CNS it was 63 µM. The TGI in the assay on UO-31 renal was 38.3 µM; in the assay with SW-620 colon it was greater than 100 µM; in the assay on PC-3 prostate, greater than 100 µM; in the assay with OVCAR-8 ovarian, greater than 100 µM.

Regarding `O=[N+]([O-])c1ccc(NC(=S)N/N=C(\c2ccccc2)c2ccccn2)cc1`, the GI50 in the assay with NCI-H23 lung was 1.71 µM; with HCC-2998 colon, 2.1 µM; in the assay on HT29 colon, 1.56 µM; in the assay with NCI-H522 lung, 1.97 µM; in the assay on A498 renal, 1.41 µM; with SF-539 CNS, 1.41 µM. Also, the GI50 with SW-620 colon is 0.0303 µM; in the assay on PC-3 prostate, 1.16 µM; with OVCAR-8 ovarian, 0.0275 µM. The TGI in the assay with NCI-H23 lung was 3.53 µM and 13.3 µM; with HCC-2998 colon, 4.26 µM and 2.83 µM; with HT29 colon, 3.12 µM and 2.78 µM; with NCI-H522 lung, 4.2 µM and 1.48 µM; in the assay with A498 renal, 2.71 µM and 3.21 µM; with SF-539 CNS it was 2.9 µM and 3.33 µM. Moreover, the TGI in the assay with UO-31 renal is 2.79 µM; in the assay on SW-620 colon, 1.93 µM and 2.35 µM; in the assay on PC-3 prostate, 2.91 µM and 2.54 µM; with OVCAR-8 ovarian, 1.06 µM and 1.42 µM.

On to `C[C@H]1CC2=CC(=O)CC[C@]2(C)[C@H]2CC[C@@]3(C)[C@@H](CC[C@]3(C)O)[C@H]12`, for which the GI50 in the assay on NCI-H23 lung was 38.2 µM; with HCC-2998 colon it was 43.8 µM; with HT29 colon it was 44.7 µM; with NCI-H522 lung it was 28.4 µM; in the assay on A498 renal, 28.2 µM; in the assay on SF-539 CNS, 32.5 µM. For the same compound, the GI50 in the assay with UO-31 renal is 20.6 µM; with SW-620 colon, 35.8 µM; with PC-3 prostate it was 8.65 µM; in the assay on OVCAR-8 ovarian, 34 µM. Besides, the TGI is greater than 100 µM with NCI-H23 lung; greater than 100 µM with HCC-2998 colon; greater than 100 µM in the assay on HT29 colon; 75.5 µM with NCI-H522 lung; greater than 82.8 µM in the assay on A498 renal; greater than 100 µM in the assay on SF-539 CNS. For the same compound, the TGI with UO-31 renal is greater than 78.5 µM; in the assay with SW-620 colon it was greater than 100 µM; with PC-3 prostate, 99.7 µM; in the assay on OVCAR-8 ovarian, greater than 100 µM.

With `Cc1cc(O)c2c(c1)C(=O)C(c1c(C)cc3c(c1O)C(=O)C1OC1C3=O)=CC2=O` (configuration not stated), the TGI in the assay with NCI-H23 lung was found to be 22.8 µM; in the assay on HCC-2998 colon, 17.2 µM; with HT29 colon, 11.7 µM; in the assay with NCI-H522 lung, 1.4 µM; with A498 renal it was 14.3 µM; in the assay with SF-539 CNS, 10.2 µM. The TGI amounted to 3.77 µM in the assay with UO-31 renal, 7.54 µM with SW-620 colon, 25.1 µM with PC-3 prostate and 18.2 µM with OVCAR-8 ovarian.

Consider `S=C(Nc1ccccc1)N1CCn2c1nsc2=Nc1ccccc1`, for which the GI50 in the assay on NCI-H23 lung was 41.1 µM; with HCC-2998 colon, greater than 100 µM; with HT29 colon it was greater than 100 µM; with NCI-H522 lung, 46.2 µM; with A498 renal it was 77.9 µM; in the assay with SF-539 CNS it was greater than 100 µM. Also, the GI50 in the assay on UO-31 renal was greater than 100 µM; in the assay on SW-620 colon, 48.4 µM; in the assay with PC-3 prostate it was 53.3 µM; in the assay on OVCAR-8 ovarian, greater than 100 µM. The TGI in the assay on NCI-H23 lung, with HCC-2998 colon, with HT29 colon, in the assay on NCI-H522 lung, with A498 renal and in the assay with SF-539 CNS was greater than 100 µM throughout. The TGI in the assay on UO-31 renal, in the assay with SW-620 colon, in the assay with PC-3 prostate and with OVCAR-8 ovarian was greater than 100 µM in each case.
